# In US20260226067A1, “MODULATORS OF TRPML, THEIR COMPOSITIONS AND METHODS OF USE” (Caraway Therapuetics, Inc., priority 2023, published 2026):
# What was measured:
# [1] = target: T1, Human TRPML3 (Homo sapiens, UniProt Q8TDD5); experiment: Fluorescent TRPML3 assay (as for TRPML1); type: cell-based; conditions: as TRPML1 assay with TRPML3 subtype; read-out: Human TRPML 3 EC50
# T1 construct: expressed in transfected cells
# T1 sequence (Q8TDD5 1-553): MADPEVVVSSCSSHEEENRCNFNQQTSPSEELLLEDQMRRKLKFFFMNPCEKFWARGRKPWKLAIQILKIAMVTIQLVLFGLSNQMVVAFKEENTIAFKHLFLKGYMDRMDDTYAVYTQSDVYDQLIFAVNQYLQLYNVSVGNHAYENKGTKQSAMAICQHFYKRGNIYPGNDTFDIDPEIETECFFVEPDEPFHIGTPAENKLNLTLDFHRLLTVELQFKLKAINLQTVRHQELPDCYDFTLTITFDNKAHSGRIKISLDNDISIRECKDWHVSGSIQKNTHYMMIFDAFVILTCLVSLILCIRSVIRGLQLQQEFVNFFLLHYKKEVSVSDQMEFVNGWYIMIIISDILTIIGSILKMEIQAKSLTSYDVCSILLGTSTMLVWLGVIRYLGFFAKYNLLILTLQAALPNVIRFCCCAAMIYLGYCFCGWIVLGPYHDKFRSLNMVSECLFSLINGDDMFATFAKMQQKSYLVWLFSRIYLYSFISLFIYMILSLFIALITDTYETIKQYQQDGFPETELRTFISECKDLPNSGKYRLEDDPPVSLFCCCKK
# Description: (§1) HEK-293 Trex cells were stably transfected with a construct consisting of the human coding sequence for TRPML1 cloned into the tet-inducible plasmid pCDNA5 T/O. Mutations were introduced into the TRPML1 sequence to facilitate expression on the cell surface (Silvia Vergarajauregui, Rosa Puertollano Traffic. 2006 March; 7(3): 337-353). Briefly, the cells are cultured in 150 mm round tissue culture dishes containing 20 mL of media. The day before the assay the cells are rinsed with DPBS-Ca-Mg and then treated briefly with Trypsin-EDTA. The Trypsin-EDTA is diluted with growth media, and cells are counted. 38×10^6 cells are re-plated into 150 mm round tissue culture dishes in media containing 0.5 ug/mL doxycycline to induce expression of hTRPML1.
# (§2) The day of the experiment cells are lifted from the plates as above and collected by centrifugation. The cells are then suspended in dye loading buffer consisting of Ringer's solution supplemented with 0.1% Pluronic Acid and 1 micromolar Fluo4-AM dye. Cells are loaded for ~60 minutes in the dark with occasional mixing. The cells are collected by centrifugation, the loading media aspirated, and the cells resuspended in 25 mL Ringer's solution and incubated ~60 minutes in the dark. The cells are again collected by centrifugation, rinsed in Ringer's Solution and resuspended to 0.2×10^6 cells/mL in modified Ringer's solution containing 10 mM calcium.
# (§3) Compounds are dissolved to a concentration of 10 millimolar with DMSO. Compound plates are created by dispensing compounds into 384 well black wall clear bottom plates (Greiner 781091). Positive and negative controls are included on each plate. Typically, different amounts of each compound are tested ranging from 100 nanoMoles (20 micromolar final concentration) decreasing in half-log steps to 31 picoMoles (6 nanomolar final concentration). Each concentration is typically tested in triplicate.
# (§4) 50 microliters of dye-loaded cells are dispensed into each well of the compound assay plate created above. The fluorescence in each well is then determined with an excitation wavelength of 480 nm and an emission wavelength of 540 nm using either a Molecular Devices SpectraMax multimode plate reader or a Hamamatsu FDSS/uCell plate imager.
# (§5) The resulting fluorescence for each well is exported as an ascii file and loaded into our LIMS for analysis. The percent activity of each compound at each concentration is determined by comparison to the positive and negative control wells included in each plate.
# (§6) Assays for TRPML2 and TRPML3 were performed as above for TRPML1, by substituting the appropriate TRPML2 or TRPML3 subtype for the TRPML1.
# (§7) EC50 values were calculated using a non-linear regression of Prism. In the table, “A” indicates an EC50 of less than 100 nM, “B” indicates an EC50 range from 100 nM to 500 nM; “C” indicates an EC50 range from 500 nM to 2 μM; and “D” indicates an EC50 greater than 2 μM.
# [2] = target: T2, Human TRPML2 (Homo sapiens, UniProt Q8IZK6); experiment: Fluorescent TRPML2 assay (as for TRPML1); type: cell-based; conditions: as TRPML1 assay with TRPML2 subtype; read-out: Human TRPML 2 EC50
# T2 construct: expressed in transfected cells
# T2 sequence (Q8IZK6 1-566): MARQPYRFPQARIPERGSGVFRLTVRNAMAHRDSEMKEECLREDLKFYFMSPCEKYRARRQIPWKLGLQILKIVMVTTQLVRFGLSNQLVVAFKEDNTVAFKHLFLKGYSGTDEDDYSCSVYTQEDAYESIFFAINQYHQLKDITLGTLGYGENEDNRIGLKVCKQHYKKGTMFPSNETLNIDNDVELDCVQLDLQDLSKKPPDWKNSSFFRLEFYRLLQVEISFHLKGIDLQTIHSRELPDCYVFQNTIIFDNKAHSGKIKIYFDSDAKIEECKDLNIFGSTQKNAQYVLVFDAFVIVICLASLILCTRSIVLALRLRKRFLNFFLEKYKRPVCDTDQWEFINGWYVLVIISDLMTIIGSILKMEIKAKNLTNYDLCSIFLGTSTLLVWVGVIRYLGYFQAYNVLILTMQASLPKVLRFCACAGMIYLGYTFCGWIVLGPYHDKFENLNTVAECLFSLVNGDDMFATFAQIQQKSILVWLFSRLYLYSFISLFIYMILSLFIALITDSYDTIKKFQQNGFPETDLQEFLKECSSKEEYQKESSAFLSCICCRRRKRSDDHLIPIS
# Description: as §1, §2, §3, §4, §5, §6, §7
# [3] = target: human TRPML1 (Homo sapiens, UniProt Q9GZU1); experiment: Fluorescent TRPML1 assay (Fluo4-AM calcium fluorescence); type: cell-based; conditions: HEK-293 Trex cells expressing hTRPML1, Fluo4-AM fluorescence; read-out: Human TRPML 1 EC50
# Chain of human TRPML1 (Q9GZU1 whole entry L15A/L16A/L577A/L578A, form open): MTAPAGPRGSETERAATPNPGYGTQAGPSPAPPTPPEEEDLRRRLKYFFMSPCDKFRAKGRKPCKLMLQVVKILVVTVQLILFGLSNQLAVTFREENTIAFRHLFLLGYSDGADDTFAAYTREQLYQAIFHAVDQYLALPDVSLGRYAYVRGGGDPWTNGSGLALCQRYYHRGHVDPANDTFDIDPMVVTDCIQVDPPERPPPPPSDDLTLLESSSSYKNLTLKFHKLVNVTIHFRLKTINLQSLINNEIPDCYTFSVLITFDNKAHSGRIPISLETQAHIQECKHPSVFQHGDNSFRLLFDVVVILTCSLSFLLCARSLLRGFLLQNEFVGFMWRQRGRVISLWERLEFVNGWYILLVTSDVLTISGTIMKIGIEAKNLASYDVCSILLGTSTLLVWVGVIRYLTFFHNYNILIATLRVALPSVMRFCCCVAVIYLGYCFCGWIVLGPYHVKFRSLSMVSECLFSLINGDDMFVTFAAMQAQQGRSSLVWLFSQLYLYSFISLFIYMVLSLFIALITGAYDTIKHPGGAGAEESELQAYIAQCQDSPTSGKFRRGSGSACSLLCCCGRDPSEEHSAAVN
# Description: as §1, §2, §3, §4, §5, §7
# [4] = tested on: TRPMLs; conditions: background statement; cited from earlier work
Structure (SMILES),EC50 [1],EC50 [2],EC50 [3],concentration needed to effectively activate TRPMLs [4]
"C[C@@H]1CN(c2ncnc3c2c(-c2ccccc2)cn3-c2cc(C#N)ccn2)[C@@H](C)CN1C(=O)c1ccccc1 [Compound 116, 2-(4-((2S,5R)-4-benzoyl-2,5-dimethylpiperazin-1-yl)-5-phenyl-7H-pyrrolo[2,3-d]pyrimidin-7-yl)isonicotinonitrile]",100 to 500 nM,500 to 2000 nM,< 100 nM,
"C[C@@H]1CN(c2ncnc3c2c(-c2ccccc2F)cn3-c2cc(C#N)ccn2)[C@@H](C)CN1C(=O)c1ccccc1N(C)C [Compound 121, 2-(4-((2S,5R)-4-(2-(dimethylamino)benzoyl)-2,5-dimethylpiperazin-1-yl)-5-(2-fluorophenyl)-7H-pyrrolo[2,3-d]pyrimidin-7-yl)isonicotinonitrile]",< 100 nM,100 to 500 nM,< 100 nM,
"C[C@H]1CN(C(=O)c2ccccc2)CCN1c1ncnc2c1c(-c1ccccc1F)cn2-c1cc(C#N)ccn1 [Compound 122, (S)-2-(4-(4-benzoyl-2-methylpiperazin-1-yl)-5-(2-fluorophenyl)-7H-pyrrolo[2,3-d]pyrimidin-7-yl)isonicotinonitrile]",100 to 500 nM,500 to 2000 nM,< 100 nM,
CC1CC(C)(C)N(C(=O)CN2C(=O)c3ccccc3C2=O)c2ccccc21 (stereo not shown) [ML-SA1],,,,~ 10 μM

# Continued, in another order:
EC50 [1],EC50 [2],EC50 [3],Structure (SMILES),concentration needed to effectively activate TRPMLs [4]
< 100 nM,100 to 500 nM,< 100 nM,"COc1ccccc1C(=O)N1C[C@H](C)N(c2ncnc3c2c(-c2ccccc2F)cn3-c2cc(C#N)ccn2)C[C@H]1C [Compound 119, 2-(5-(2-fluorophenyl)-4-((2S,5R)-4-(2-methoxybenzoyl)-2,5-dimethylpiperazin-1-yl)-7H-pyrrolo[2,3-d]pyrimidin-7-yl)isonicotinonitrile]",
< 100 nM,100 to 500 nM,< 100 nM,"CC(C)c1ccccc1C(=O)N1C[C@H](C)N(c2ncnc3c2c(-c2ccccc2F)cn3-c2cc(C#N)ccn2)C[C@H]1C [Compound 120, 2-(5-(2-fluorophenyl)-4-((2S,5R)-4-(2-isopropylbenzoyl)-2,5-dimethylpiperazin-1-yl)-7H-pyrrolo[2,3-d]pyrimidin-7-yl)isonicotinonitrile]",
